Where two headings read alike, the source gives them in different places.
Key:
[1] = target: T1, human estrogen receptor (hERα) (Homo sapiens, UniProt P03372); assay: Yeast estrogen screen (YES); format: cell-based
T1 construct: expressed in transfected cells; host or cells: recombinant yeast strain (provided by Wagner and Oehlmann, Frankfurt; by permission of Routledge and Sumpter)
T1 sequence (P03372 1-595): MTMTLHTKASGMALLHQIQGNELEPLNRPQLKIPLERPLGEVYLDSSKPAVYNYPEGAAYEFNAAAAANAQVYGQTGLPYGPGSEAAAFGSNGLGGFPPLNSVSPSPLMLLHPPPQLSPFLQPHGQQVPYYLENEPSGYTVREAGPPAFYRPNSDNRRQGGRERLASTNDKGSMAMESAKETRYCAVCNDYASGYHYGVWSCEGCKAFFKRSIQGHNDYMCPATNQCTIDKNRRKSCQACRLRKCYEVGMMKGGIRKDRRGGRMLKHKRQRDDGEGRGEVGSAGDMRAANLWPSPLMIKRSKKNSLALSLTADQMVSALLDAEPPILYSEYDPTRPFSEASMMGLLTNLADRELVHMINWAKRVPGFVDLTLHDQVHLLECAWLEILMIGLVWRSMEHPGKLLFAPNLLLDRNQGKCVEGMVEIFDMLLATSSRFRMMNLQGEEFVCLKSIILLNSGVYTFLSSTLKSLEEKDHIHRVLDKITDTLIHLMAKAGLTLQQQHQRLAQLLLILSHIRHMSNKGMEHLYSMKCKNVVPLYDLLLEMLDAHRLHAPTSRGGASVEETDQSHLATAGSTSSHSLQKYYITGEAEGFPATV
Protocol: (§1) Briefly, different resin types of food packaging were migrated with food simulants for 10 days at 60°C. […] From every sample two independent migrates were prepared, subsequently concentrated by solid phase extraction and tested in the bioassays. […] For each migration a solvent blank of each food simulant was migrated in a glass bottle with a polytetrafluorethylene-coated cap. Prior to solid phase extraction, 1 ml and 20 ml of each migrate were set aside for HPLC and GC analysis.
(§2) After 10 days of migration, solid phase extraction by Waters Oasis HLB columns (5 cc/200 mg) was used to extract hormone active components from the food simulants. As described in detail by Kirchnawy et al. sample migrates diluted to 10% ethanol and adjusted to pH 3 were drawn through the columns and eluted into […] DMSO. Elutes were evaporated under a nitrogen stream to a final volume of 150–200 µl and stored at 4°C prior to analysis by YES, YAS and CALUX bioassays. Extraction recoveries and reproducibility of the solid phase extraction were previously determined by Kirchnawy et al..
The yeast strain contains the stably integrated human estrogen receptor (hERα) gene and an expression plasmid containing the reporter gene lacZ under the control of estrogen responsive elements (ERE). The activation of the hERα by the binding of an estrogen active substance leads to the expression of β-galactosidase, which converts the substrate chlorophenol red-β-D-galactopyranoside (CPRG) into chlorophenol red.
The analysis of food contact materials was conducted as previously described by Kirchnawy et al.. Briefly, yeast cells were incubated with fresh media supplemented with 1% of the respective DMSO sample extracts on a 96-well microtiter plate for 24 h. […] The regression was calculated by MS Excel, using the formula for a linear regression curve (y = kx + d).

[2] = target: T2, human estrogen receptor alpha (hERα) (Homo sapiens, UniProt P03372); assay: ERα CALUX reporter gene assay in U2-OS cells; format: cell-based; details: for EC50: footnote a: inhibition of U2-OS cell growth at higher concentrations
T2 construct: host or cells: human U2-OS osteosarcoma cells
T2 sequence (P03372 1-595): T1 sequence (P03372 1-595)
Protocol: as §1, §2
The ERα CALUX is a human U2-OS cell line stably co-transfected with an expression construct for the human estrogen receptor alpha (hERα). Activation of the hERα by the binding of an estrogen active substance leads to the transcription of luciferase, which emits light when luciferin is added as a substrate.
Assay procedure was conducted as previously described by Sonneveld et al. with modifications. U2-OS cells were plated at a concentration of 10 000 cells/well with 100 µl phenol red-free Dulbecco's modified eagle medium (DMEM) (supplemented with dextran-coated charcoal-stripped FCS) in a 96-well microtiter plate. After 24 h incubation at 37°C in a humidified atmosphere with 5% CO2, DMEM medium was refreshed and cells were incubated for another 24 h with 0.5% of the respective DMSO sample extract. After examining cell growth under a microscope to ensure that sample extracts had no cytotoxic or growth inhibiting effects, 50 µl Steady Glo Luciferase-Mix (Promega) was added to each well and incubated for 15 min for cell lysis. This was followed by measuring the luciferase activity of each well using a multilabel reader (Victor^3, Perkin Elmer).

[3] = set-up: method as in PMID 21050888; details: cited from earlier work
[4] = tested on: kidney fibroblast cell 293T and human breast cancer cells ZR-75; set-up: method as in PMID 7556011; details: at a concentration of 100 µmol/l; cited from earlier work
CHO-K1 cells = tested on: CHO-K1 cells; set-up: method as in PMID 18261797; details: cited from earlier work
rainbow trout = tested on: rainbow trout; set-up: method as in PMID 18261797; details: cited from earlier work
MCF7 = tested on: MCF7; set-up: method as in PMID 11485868; details: human cell-based MCF7 proliferation assay; cited from earlier work
[5] = target: T3, human androgen receptor (hAR) (Homo sapiens, UniProt P10275); assay: Yeast androgen screen (YAS); format: cell-based; details: footnote b: inhibition of yeast growth at higher concentrations
T3 sequence (P10275 1-920): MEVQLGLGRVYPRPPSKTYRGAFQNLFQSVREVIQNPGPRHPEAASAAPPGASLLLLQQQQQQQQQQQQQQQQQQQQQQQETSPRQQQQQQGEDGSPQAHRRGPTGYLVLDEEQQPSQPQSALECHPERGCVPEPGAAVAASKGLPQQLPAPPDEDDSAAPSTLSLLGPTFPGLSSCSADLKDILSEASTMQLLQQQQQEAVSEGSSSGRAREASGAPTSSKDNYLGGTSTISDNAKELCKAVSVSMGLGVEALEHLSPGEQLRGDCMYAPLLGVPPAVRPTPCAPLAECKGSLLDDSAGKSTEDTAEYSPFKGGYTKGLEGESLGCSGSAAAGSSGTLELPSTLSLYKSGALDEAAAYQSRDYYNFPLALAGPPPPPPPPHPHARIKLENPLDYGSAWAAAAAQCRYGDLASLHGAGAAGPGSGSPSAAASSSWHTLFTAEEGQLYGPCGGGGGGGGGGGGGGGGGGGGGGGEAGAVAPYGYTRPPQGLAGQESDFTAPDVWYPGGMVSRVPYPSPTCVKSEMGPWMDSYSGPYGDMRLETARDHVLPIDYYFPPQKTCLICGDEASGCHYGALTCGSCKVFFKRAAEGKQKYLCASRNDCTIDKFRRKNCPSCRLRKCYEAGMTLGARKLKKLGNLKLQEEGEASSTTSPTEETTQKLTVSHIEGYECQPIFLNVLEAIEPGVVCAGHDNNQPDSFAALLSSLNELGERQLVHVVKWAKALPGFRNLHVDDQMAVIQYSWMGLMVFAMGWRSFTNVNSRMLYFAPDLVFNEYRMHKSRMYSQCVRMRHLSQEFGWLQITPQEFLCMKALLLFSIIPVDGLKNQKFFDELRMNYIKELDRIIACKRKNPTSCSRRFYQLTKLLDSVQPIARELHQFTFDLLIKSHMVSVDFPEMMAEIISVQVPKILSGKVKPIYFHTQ
Protocol: as §1, §2

[6] = target: T3, human androgen receptor (hAR); assay: AR CALUX reporter gene assay in U2-OS cells; format: cell-based; set-up: host or cells: human U2-OS osteosarcoma cells; details: footnote a: inhibition of U2-OS cell growth at higher concentrations
Protocol: as §1, §2

[7] = agonist mode, footnote b: inhibition of yeast growth at higher concentrations, read-out: YES Estrogen activity EC50
[8] = antagonist mode, spiked with 80 pmol/l 17β-estradiol, footnote b: inhibition of yeast growth at higher concentrations, read-out: YES Antiestrogen activity EC50
[9] = agonist mode, read-out: ER CALUX Estrogen activity EC50
[10] = antagonist mode, spiked with 8 pmol/l 17β-estradiol, read-out: ER CALUX Antiestrogen activity EC50

Row | EC50 [1, 7] | EC50 [1, 8] | EC50 [2, 9] | EC50 [2, 10] | Compound | estrogen activity in the YES (in words) ([1]; agonist mode) | estrogen activity in the ERα CALUX (in words) ([2]; agonist mode) | also measured
1 |  |  |  |  | CC(C)(c1ccccc1)c1ccc(O)c(C(C)(C)c2ccccc2)c1 [2,4-di-cumylphenol] | showed estrogen activity | showed estrogen activity | EC50 [1]: > 300 µM; EC50 ([2]; ER CALUX Antiestrogen activity EC50, antagonist mode, spiked with 8 pmol/l 17β-estradiol): > 20 µM; EC50 ([2]; ER CALUX Estrogen activity EC50, agonist mode): 5 µM
2 |  |  |  |  | Cc1cc(C(C)(C)C)c(O)c(C(C)(C)C)c1 [2,6-bis(1,1-dimethylethyl)-4-methylphenol] |  |  | estrogen activity in 293T and ZR-75 cells [4]: tested positive for estrogen
3 | > 10 µM | > 10 µM | > 20 µM | > 20 µM | CC(C)(C)c1ccc(O)c(C(C)(C)C)c1 [2,4-di-tert-butylphenol] |  |  | androgen antagonist in CHO-K1 cells (CHO-K1 cells): androgen antagonist; androgen antagonist in rainbow trout (rainbow trout): androgen antagonist
4 |  |  |  |  | c1ccc(C2CCC2c2ccccc2)cc1 (stereo not drawn) [1,2-diphenylcyclobutane] |  |  | times less active than 17β-estradiol (MCF7): 4*10^5
5 | 500 µM | > 1000 µM | 40 µM | > 500 µM | c1ccc(CCCc2ccccc2)cc1 [1,3-diphenylpropane] | tested positive for estrogen activity | tested positive for estrogen activity | EC50 ([5]; agonist mode, read-out: YAS Androgen activity EC50): > 1000 µM; EC50 ([5]; antagonist mode, spiked with 2.4 nmol/l DHT, read-out: YAS Antiandrogen activity EC50): 30 µM; EC50 ([6]; agonist mode, read-out: AR CALUX Androgen activity EC50): > 500 µM; EC50 ([6]; antagonist mode, spiked with 400 pmol/l DHT, read-out: AR CALUX Antiandrogen activity EC50): 30 µM

Row | Compound | EC50 [1, 7] | EC50 [1, 8] | EC50 [2, 9] | EC50 [2, 10] | estrogen activity in the YES (in words) ([1]; agonist mode) | estrogen activity in the ERα CALUX (in words) ([2]; agonist mode) | also measured
6 | CCCCC(CC)COC(=O)CCCCC(=O)OCC(CC)CCCC (stereo not drawn) [diethylhexyladipate (DEHA), diethylhexyladipate] | > 1000 µM | > 1000 µM | > 500 µM | > 500 µM | did not show any activity | did not show any activity | estrogen activity using the E-Screen [3]: tested positive for estrogen activity

Source: publication PMC4085075, “Characterization of Estrogen and Androgen Activity of Food Contact Materials by Different In Vitro Bioassays (YES, YAS, ERα and AR CALUX) and Chromatographic Analysis (GC-MS, HPLC-MS)” (PLoS ONE, 2014)
